Assay results from PubChem BioAssay (NCI).
Several values for one entry are separate records, joined by “and”; a condition that tells them apart may be missing. Identical values can stand only once.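 These data come from cells grown in 96-well plates and exposed to compound for 48 hours at five concentrations. GI50 marks 50% less growth. TGI marks complete inhibition of growth.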

Key:
Experiment in all cases: growth of human tumour cells (NCI), 48 h
SNB-19 CNS = test system: SNB-19 CNS
HCT-15 colon = test system: HCT-15 colon
EKVX NSCLC = test system: EKVX NSCLC
CAKI-1 renal = test system: CAKI-1 renal
OVCAR-8 ovarian = test system: OVCAR-8 ovarian
M14 melanoma = test system: M14 melanoma
CCRF-CEM leukemia = test system: CCRF-CEM leukemia
LOX IMVI melanoma = test system: LOX IMVI melanoma
PC-3 prostate = test system: PC-3 prostate
BT-549 breast = test system: BT-549 breast

Structure (SMILES)	TGI (SNB-19 CNS) [µM]	TGI (HCT-15 colon) [µM]	TGI (EKVX NSCLC) [µM]	TGI (CAKI-1 renal) [µM]	TGI (OVCAR-8 ovarian) [µM]	TGI (M14 melanoma) [µM]	TGI (CCRF-CEM leukemia) [µM]	TGI (LOX IMVI melanoma)	TGI (PC-3 prostate) [µM]	GI50 (OVCAR-8 ovarian) [µM]	GI50 (BT-549 breast) [µM]	TGI (BT-549 breast) [µM]	GI50 (PC-3 prostate) [µM]	GI50 (SNB-19 CNS) [µM]	GI50 (M14 melanoma) [µM]	GI50 (CCRF-CEM leukemia) [µM]	GI50 (LOX IMVI melanoma) [µM]	GI50 (HCT-15 colon) [µM]	GI50 (CAKI-1 renal) [µM]	GI50 (EKVX NSCLC) [µM]
CC1=C2C(=CC(C)(C)C2O)C(=O)C(C)(O)C12CC2 (stereo not drawn)	0.17	0.151	0.144	0.0315	0.0499	0.0602	0.126	0.025 µM	–	–	–	–	–	–	–	–	–	–	–	–
O=CN/C=C/c1ccc(O)c(O)c1	> 100	> 100	> 100	> 100	> 100	> 100	> 100	> 100 µM	–	–	–	–	–	–	–	–	–	–	–	–
CCOC(=O)NC(=O)c1cn(CCCCCCOC(=O)NCCCCCCNC(=O)OCCCCCCn2cc(C(=O)NC(=O)OCC)c(=O)[nH]c2=O)c(=O)[nH]c1=O	> 100	> 100	> 100	> 100	> 100	> 100	> 100	> 100 µM	–	–	–	–	–	–	–	–	–	–	–	–
COC(=O)c1cc2ccc(OC(C)=O)c(OC(C)=O)c2cn1	–	39	38.1	35.9	22.2	34.3	5.57	3.63 µM and 2.6 µM	50.9	10.1	–	–	–	–	–	–	–	–	–	–
N#CC(c1nc2ccccc2nc1Cl)S(=O)(=O)c1ccccc1 (stereo not drawn)	> 100	> 100	> 100	> 100	> 100	> 100	> 100	> 100 µM	–	–	–	–	–	–	–	–	–	–	–	–
Cc1ccc(N2C(=O)C3C=CC(n4[nH]c(=O)n(Cc5ccccc5)c4=O)CC3C2=O)cc1 (stereo not drawn)	> 100	> 100	> 100	> 100	> 100	> 100	> 100	> 100 µM	–	–	–	–	–	–	–	–	–	–	–	–
COC(=O)c1cc(Cl)ccc1NC(=O)c1ccc([N+](=O)[O-])cc1	–	> 100	> 100	53.1	63.9	90.7	80.4	–	–	–	–	–	–	–	–	–	–	–	–	–
COC(=O)CCC(NC(=S)N/N=C/c1ccco1)C(=O)OC (stereo not drawn)	> 100	> 100	> 100	–	> 100	> 100	> 100	> 100 µM	–	–	–	–	–	–	–	–	–	–	–	–
NC(=O)c1c(NC(=O)c2ccc3c(c2)OCO3)sc2c1CCC(=O)C2	> 100	–	–	–	> 100	> 100	2.32	> 100 µM	> 100	1.75	0.373	5.57	0.313	2.17	0.59	0.333	1.15	–	–	–
CC(C)c1cccc2sc(NC(=O)C(=O)C(C#N)c3cccc4ccccc34)nc12 (stereo not drawn)	> 100	> 100	67.2	> 100	> 100	> 100	> 100	–	–	–	–	–	–	–	–	–	–	–	–	–
O=C(Nc1cccc(NC(=O)Nc2cc(C(F)(F)F)ccc2Cl)c1)Nc1cc(C(F)(F)F)ccc1Cl	14	> 100	–	> 100	15.7	60	71.7	15.4 µM	8.23	2.05	5.55	38.4	1.4	1.77	3.53	3.21	3.47	0.566	3.14	–
C/C(CC(=O)Nc1ccc(Cl)cc1)=N\NC(N)=S	–	–	> 100	–	> 100	> 100	> 100	> 100 µM	–	–	–	–	–	–	–	–	–	–	–	–
COC(=O)C1=CC2C(=O)OC1CC2C#N (stereo not drawn)	> 100	–	–	> 100	> 100	> 100	> 100	> 100 µM	–	–	–	–	–	–	–	–	–	–	–	–
COc1cc(C(=O)NC2CCN(C)CC2)c(F)cc1Nc1ncc2c(n1)N(C1CCCC1)CC(F)(F)C(=O)N2C	17.1	14	–	3.71	18.7	5.89	3.58	4.96 µM	18.3	0.0338	1.87	20	< 0.0201	< 0.0281	0.0235	< 0.01	< 0.0186	< 0.0213	< 0.0243	–
O=C(Nc1ccc(Cl)c(Cl)c1)O/N=C\c1c(Cl)ccc([N+](=O)[O-])c1Cl	20.6	3.48	–	3.38	8.47	8.18	5.1	2.76 µM	3.74	2.62	2.57	6.42	1.58	7.6	2.44	1.88	1.24	1.2	1.67	–
COc1ccc2c(c1)C(=O)c1c-2c(N(C)C)nc2ccccc12	> 100	> 100	> 100	–	> 100	> 100	> 100	> 100 µM	> 100	> 100	> 100	> 100	> 100	> 100	> 100	> 100	> 100	> 100	–	> 100
COc1ccc(C2=NN(c3ccccc3)C[N+](c3ccc(OC)cc3)=N2)cc1	92.1	> 100	> 100	–	> 100	–	83.4	61.9 µM	–	–	–	–	–	–	–	–	–	–	–	–
CC(=O)C1C(=O)C(=O)N(c2ccccc2C(C)C)C1=O (stereo not drawn)	> 100	> 100	> 100	> 100	> 100	> 100	> 100	> 100 µM	–	–	–	–	–	–	–	–	–	–	–	–
Cn1cc(C2=C(c3cccc(OCC(O)CO)c3)C(=O)NC2=O)c2ccccc21 (stereo not drawn)	> 25	> 25	–	> 25	> 25	> 25	> 25	> 25 µM	> 25	> 25	> 25	> 25	> 25	> 25	> 25	> 25	> 25	> 25	> 25	–
